Results filed as inconclusive are left out. Activity calls are given as the source filed them. How the calls were made is not given here.

In the test the test system is Mycobacterium tuberculosis non-replicating, growth inhibition. In words: growth inhibition of non-replicating M. tuberculosis (AID 488890).
On to `CC1=NN(C(=O)c2ccc(Br)cc2)C(O)(c2ccccc2)C1` (configuration not stated), for which the IC50 was 0.47 µM.
The value for `COc1ccc(-c2nnc(NC(=O)c3ccc(S(=O)(=O)N4COCC4(C)C)cc3)o2)cc1` was 11.2 µM (inactive); that for `COC(=O)COc1ccc(S(=O)(=O)N2CCCCCC2)cc1` was 4.19 µM.
For `O=C(Nc1ncccc1O)c1ccc(Oc2ccccc2)cc1` the value was 20.5 µM (inactive).
With `O=C(c1cccs1)N1CCN(c2ccc(Cl)cc2)CC1`, the IC50 is 27.2 µM (inactive).
For `COc1cc(N=c2ssnc2Cl)cc(OC)c1` the value was 19.3 µM (inactive); for `O=C(N/N=C/c1coc2ccccc2c1=O)c1ccc(Cl)cc1`, 0.97 µM; for `Nc1nnc(Sc2ncccc2[N+](=O)[O-])s1`, 17 µM (inactive).
The value for `Cc1nc2c(=O)n(C)c(=O)n(C)c2nc1Cl` was 10.3 µM (inactive).
The value for `COc1ccc(N2C(=O)C(F)(F)C2c2cccc(F)c2)cc1` (configuration not stated) was 2.15 µM; that for `Cc1cc2ncn(/N=C/c3ccc([N+](=O)[O-])s3)c2cc1C` was 1.09 µM.
With `CN(C(=O)COC(=O)c1ccc([N+](=O)[O-])cc1Cl)C1CCCCC1`, the IC50 was 5.88 µM.
For `CC1=CC2=NC(=O)/C(=C\c3ccc(OC(=O)c4ccco4)cc3)C(=N)N2O1` the value was 5.99 µM; for `CN(CC(=O)Nc1ccc(C#N)cc1)Cc1ccc(Cl)c(Cl)c1`, 12.9 µM (inactive); for `COc1ccc(CCNc2cc(-c3ccccc3)nc3ncnn23)cc1`, 0.49 µM.
In the case of `CN(C)c1nc(-c2ccccn2)nnc1-c1ccccc1`, the IC50 is 9.74 µM.
The value for `FC(F)(Cl)c1nnc2ccc(Cl)nn12` was 1.38 µM; that for `Cc1cc(Nc2ccccc2)n(-c2nc3ccccc3[nH]2)n1` was 3.88 µM.
As for `Oc1oc(-c2ccco2)nc1C=Nc1cccc(Cl)c1`, the concentration for half-maximal inhibition (IC50) is 7.88 µM.
As for `COc1ccc(C(=O)N/N=C(\c2ccccc2)c2ccccn2)cc1`, the IC50 was 3.27 µM.
Take `CC1=NN(c2ccc(C(=O)O)cc2)C(=O)/C1=C\c1ccc(OC(=O)c2cccs2)cc1`: the IC50 was 7.5 µM.
With `Oc1c(Cl)cc(CN2CCOCC2)c2cccnc12`, the 50% inhibitory concentration (IC50) was 2.53 µM.
For `Cc1cc(Cl)ccc1OCC(=O)NNC(=O)c1cnccn1` the value was 6.05 µM; for `NC(=O)N/N=C\c1cc(Br)ccc1O`, 4.2 µM.
The value for `CN1CCN(/N=C/c2ccc(-c3ccc([N+](=O)[O-])cc3Cl)o2)CC1` was 26.9 µM (inactive); that for `CCOCC(=O)Nc1ccc(C)c(Cl)c1` was 5.63 µM.
As to `Cc1ccc(C(=O)N/N=C/c2cccc3ccccc23)cn1`, the concentration for half-maximal inhibition (IC50) is 5.95 µM.
The value for `Cc1ccc(CSc2nnc(-c3cccnc3)o2)cc1` was 1.49 µM; that for `COc1ccc(C(=O)NNC2=C(C(=O)C(F)(F)F)CCC2)cc1` was 1.9 µM; that for `NC1=NC[C@H](Cc2ccc(O)cc2)N1CCc1cccc2ccccc12` was 8.19 µM.
Take `CCOC(=O)C1=C(C)C/C(=N\NC(=O)c2ccccc2O)CC1`: the concentration for half-maximal inhibition (IC50) is 4.22 µM.
As for `O=C(CNC(=O)c1cccc(F)c1)N/N=C/c1ccc([N+](=O)[O-])s1`, the IC50 was 10.6 µM (inactive).
Consider `C=C(C)C1CC=C(C)/C(=N/NC(=O)CNc2ccc(OCC)cc2)C1` (configuration not stated), for which the IC50 is > 25 µM (inactive).
The value for `O=C(Nc1ccccc1F)c1ccc([N+](=O)[O-])s1` was 0.78 µM.
For `CCOC(=O)c1ccc(N=C2SC(C(=O)Nc3ccc(C(=O)O)cc3)CC(=O)N2Cc2cccs2)cc1` (configuration not stated) the value was 35.1 µM (inactive).
The value for `Cc1nn2c(NCCN(C)C)c3c(nc2c1-c1ccccc1)CCCC3` was 5.07 µM; that for `Cc1cc(NC(=O)c2ccccc2F)n(-c2nc3ccccc3[nH]2)n1` was 7.5 µM; that for `CC(=O)CC1(OC(C)=O)C(=O)N(C)c2ccccc21` (configuration not stated) was 21.5 µM (inactive).
`CC(=O)Nc1nc2ccccc2n1CCOc1ccccc1Cl`: the 50% inhibitory concentration (IC50) is 5.37 µM.
With `c1ccc(-c2nc3ccccn3c2NC2CCCC2)nc1`, the IC50 is 24.9 µM (inactive).
For `C=CCn1c(=O)c(C(=O)Nc2cccnc2)c(O)c2ccccc21` the value was 7.58 µM; for `O=C(N/N=C/C=C/c1cccc([N+](=O)[O-])c1)c1ccncc1`, 24.8 µM (inactive); for `O=C(NNc1ccc([N+](=O)[O-])cc1)C1CC2CCCC(C1)C2=O` (configuration not stated), 16.2 µM (inactive).
The value for `Cc1cc(NC(=O)COc2ccccc2)ccc1Cl` was 5.43 µM.
`O=C(COC(=O)CCc1c[nH]c2ccccc12)NCc1ccc(Cl)cc1`: the IC50 is 7.82 µM.
For `COc1ccccc1N=Cc1nc(-c2ccccc2)oc1OC(C)=O` the value was 19.6 µM (inactive); for `Nc1cccn2c(-c3ccc(Cl)cc3)cnc12`, 8.34 µM.
The value for `O=C(N/N=C\c1ccc([N+](=O)[O-])o1)C1COc2ccccc2O1` (configuration not stated) was 2.27 µM; that for `CCCCOC(=O)c1ccc(OC(=O)c2cccnc2)cc1` was 13.4 µM (inactive); that for `COC(=O)C1=C(C)N(CC2CC2)C(=NCc2cccc(Cl)c2)N[C@H]1c1ccccc1` was 10.5 µM (inactive).
The value for `CC(/C=C/c1ccc2c(c1)OCO2)=N/NC(=O)C1COc2ccccc2O1` (configuration not stated) was 4.54 µM.
With `O=c1cc2[nH]c3ccccc3c(=O)n2nc1-c1ccccc1`, the half-maximal inhibitory concentration (IC50) is 7.1 µM.
The value for `Cc1ccc(-c2noc(CCCC(=O)Nc3cccnc3)n2)cc1` was 7.61 µM.
On to `Cc1cc(N2CCN(c3ccccc3)CC2)nc(-n2nc(C)cc2C)n1`, for which the IC50 was 6.28 µM.
The value for `O=C(OCC(=O)N1CCN(c2ccccc2)CC1)c1ccc(Cl)cc1[N+](=O)[O-]` was 14.4 µM (inactive); that for `Cc1ccc(NC(=O)C2=C(c3ccccc3)S(=O)(=O)CCS2(=O)=O)cc1` was 2.05 µM.
For `S=C1NC2(CCCC2)N=C1c1ccccc1` the value was 12.4 µM (inactive).
For `Cc1cc(N2CCCCC2)nc(NCc2ccccc2)n1` the value was 8.38 µM; for `Cc1ccc(NC(=O)CN(C)C2CCCCC2)cc1Br`, 0.35 µM; for `CSc1ccc(N=Nc2c(C)[nH]n(C)c2=O)cc1`, 20.6 µM (inactive).
With `O=C(COC(=O)CCC(=O)c1ccc(F)cc1)Nc1ccccc1`, the IC50 is 11.1 µM (inactive).
On to `COC(=O)CN(C#N)c1nc(SC)nc(N(C)C)n1`, for which the IC50 was 15.9 µM (inactive).
The value for `CCCn1c(O)c(N=NC(=O)c2ccco2)c2ccccc21` was 14.2 µM (inactive).
The value for `Cc1ccccc1OCCNc1cc(N2CC(C)NC(C)C2)ccc1[N+](=O)[O-]` (configuration not stated) was 10.8 µM (inactive); that for `CCn1c(NC(=O)C2CCCCC2)nc2ccccc21` was 4.53 µM; that for `CCOc1cccc2cc(C(=O)NCc3ccccc3)c(=N)oc12` was 10.2 µM (inactive).
The value for `COC(=O)c1ccc2c(c1O)C(=O)c1ccccc1C2=O` was 1.44 µM; that for `c1ccc2cc(OCCCn3ccnc3)ccc2c1` was 16.5 µM (inactive); that for `Cc1cc(C)cc(OCC(=O)N/N=C/c2ccc([N+](=O)[O-])o2)c1` was 1.36 µM.
For the compound `N/C(=N/OC(=O)c1ccc(Cl)cc1)c1ncc([N+](=O)[O-])s1`, the half-maximal inhibitory concentration (IC50) was 7.53 µM.
Turning to `CCCOC(=O)c1cc(-c2ccc(C=O)o2)ccc1Cl`, the IC50 was 4.94 µM.
Regarding `O=C(Nc1cccc(Cl)c1)Nc1nnc(-c2ccncc2)s1`, the half-maximal inhibitory concentration (IC50) is 2.69 µM.
The value for `Cc1cc(C)c(OCC(=O)Nc2nnc(-c3ccco3)o2)c(C)c1` was 45.3 µM (inactive); that for `O=C(CCC1CCCCC1)NCc1ccc(F)cc1` was 5.27 µM; that for `C=C(C)C1Cc2c(C)nn(-c3nc(C)cc(C)n3)c2C1` (configuration not stated) was 11.6 µM (inactive).
In the case of `COc1cc(OC)cc(C(=O)NNC(=O)c2ccccn2)c1`, the IC50 is 11.6 µM (inactive).
The value for `CCc1c(C)c2ccc(OCC(=O)OC)cc2oc1=O` was 9.03 µM; that for `CN1C(=O)CC(N2CCC(c3nc4ccccc4s3)CC2)C1=O` (configuration not stated) was 32.6 µM (inactive); that for `O=[N+]([O-])c1ccc(Nc2ccccc2O)c2nonc12` was 5.94 µM.
For `O=C(c1cccc2cccc(O)c12)N1CCCCC1` the value was 3.82 µM; for `O=C(N/N=C(\c1ccccc1)c1cccnc1)c1cccc(F)c1`, 3.88 µM; for `CCOC(=O)c1sc(NC(=O)CCN2CC(C)OC(C)C2)c(C(=O)OCC)c1C` (configuration not stated), 21.8 µM (inactive).
Take `Cc1cc(C)n2[nH]c(=O)c(N=Nc3cccc(C(F)(F)F)c3)c2n1`: the IC50 is 4.14 µM.
For `Cc1ccnc(-n2c(C)cc(/C=C3\C(=O)NC(=S)N(C)C3=O)c2C)c1` the value was 25.7 µM (inactive).
The value for `COC(=O)COc1ccc(-c2ccc(F)cc2)cc1C=O` was 5.82 µM; that for `O=C(COc1ccc(Cl)cc1)Nc1ccc2[nH]ncc2c1` was 26.5 µM (inactive); that for `CC(C)(C)NCc1cc(Br)ccc1OCc1cccs1` was 9.07 µM.
The value for `O=C(NNC(=O)c1ccccn1)c1cccc([N+](=O)[O-])c1` was 11 µM (inactive).
Consider `CC(NC(=O)c1cccc(F)c1)C1CC2CCC1C2` (configuration not stated), for which the half-maximal inhibitory concentration (IC50) is 0.16 µM.
Take `COc1cccc2cc(-c3nc4ccccc4o3)c(=O)oc12`: the concentration for half-maximal inhibition (IC50) is 7.31 µM.
For `CC(C)(C)NCC1(CO)SC(N)=NC1=O` (configuration not stated) the value was 15.5 µM (inactive); for `CC(=O)Nc1nc2ccccc2n1Cc1ccc(Cl)cc1`, 1.93 µM.
For `CCCCCC(=O)N/N=C(\C)c1ccccn1` the value was 9.55 µM; for `O=C(NC(=S)N1CCc2ccccc21)c1ccccc1`, 11.6 µM (inactive); for `COC(=O)COc1ccc(-c2ccccc2)cc1C=O`, 8.95 µM.
In the case of `O=C(COc1ccc2ccccc2c1Br)N1CCCC1`, the IC50 is 0.56 µM.
The value for `Cc1nc([N+](=O)[O-])c(Br)n1CC(=O)c1ccccc1` was 25.5 µM (inactive).
Take `COC(=O)CCCCCN1C(=O)/C(=C\c2ccncc2)SC1=S`: the IC50 was 3.94 µM.
The value for `Cc1c([N+](=O)[O-])cnc(Sc2ccccc2)c1[N+](=O)[O-]` was 6.43 µM; that for `Cn1c(SCc2c(F)cccc2Cl)nc2c(c1=O)SCC2` was 28.2 µM (inactive).
On to `NNC(=O)COc1cccc(Oc2ccccc2)c1`, for which the IC50 is 25.2 µM (inactive).
Consider `CSc1ccc(CNc2ncc(-c3cccc([N+](=O)[O-])c3)n2C)cc1`, for which the IC50 is 21.1 µM (inactive).

These data come from PubChem BioAssay AID488890 (Southern Research Specialized Biocontainment Screening …, 2010).
